2 substances from US20070149469A1, “Medical use of tbk-1 or of inhibitors thereof” (priority 2003, published 2007) can be followed below.

The test system of data set [1] is normal human dermal fibroblasts (NHDF). Put plainly: NHDF proliferation after transfer of supernatants from transfected HEK 293 cells, Alamar Blue. The format is cell-based. Particulars: 25 μl HEK 293 supernatant, 4 days, versus empty vector. Here is the method:
In order to investigate the cell type specificity of TBK-1, supernatants from transfected HEK 293 cells were also added to normal human dermal fibroblasts (NHDF). NHDF were seeded at 1,000 cells per well on 96-well tissue culture plates two days prior to the transfer in 100 μl complete Fibroblast Growth Medium (Promocell, Heidelberg). 24 h prior to the transfer the medium was changed to 100 μl Fibroblast Basal Medium (Promocell, Heidelberg) containing 75 μg/ml gentamycin, 50 ng/ml amphotericin B. After 25 μl of HEK 293 supernatant had been transferred, cells were incubated for 4 days and viable cell number was assessed by Alamar Blue reduction as above.
Background: Resazurin is reduced to fluorescent resorufin, in cell work by metabolically active cells.

For another data set, the system named is TBK-1 mRNA. Put plainly: TBK-1 mRNA knock down by RNAi in HEK 293 cells, quantitative RT-PCR relative to G6PDH. The data set is classed as cell-based, human. Particulars: 100 nM siRNA. Here is the method: Real-time PCR was carried out using a LightCycler (Roche Diagnostics). Reactions were set up in microcapillary tubes using the following final concentrations: 0.5 μM each of TBK-1 sense (TTGAAGAGGAGACAACAACAAGA) and TBK-1 antisense (CAT TCC ACC CAC CAC ATC T) primers, 3 mM MgCl2, 1×SYBR Greenmaster mix and 2 μl of cDNA.
Cycling conditions for TBK-1 were as follows: denaturation (95° C. for 10 min), amplification and quantitation (95° C. for 10 s, 58° C. for 10 s and 72° C. for 13 s, with a single fluorescence measurement at the end of the 72° C. for 13 s segment) repeated 45 times. A melting curve program (55-95° C. with a heating rate of 0.1° C./s and continuous fluorescence measurement) and a cooling step to 40° C. followed.
(§1) For relative quantification the procedure was repeated for G6PDH mRNA as reference gene. Data were analyzed using LightCycler analysis software.
HEK 293 cells were transfected with double stranded RNAi oligos specific for TBK-1 using siPORT Amine according to the manufacture's protocol (Ambion Europe LTD, Cambridgeshire, United Kingdom). […] Under these conditions, increased expression of VEGF is observed and can be detected via VEGF ELISA (as shown in example 3).
To determine the functionality of the RNAi molecule regarding inhibition of TBK-1 expression, relative expression levels of TBK-1 mRNAs were analysed by quantitative real-time PCR. […]

The next data set deals with VEGF mRNA. Put plainly: Hypoxia (CoCl2)-induced VEGF mRNA expression in HEK 293 cells after TBK-1 RNAi, quantitative RT-PCR relative to G6PDH. Particulars: 100 nM siRNA. The format is cell-based, human. Here is the method: Real-time PCR was carried out using a LightCycler (Roche Diagnostics). Reactions were set up in microcapillary tubes using the following final concentrations: 0.5 μM each of VEGF sense (CTTGCCTTGCTGCTCTACCT) and VEGF antisense (GATTCTGCCCTCCTCCTTCT) primers, 3 mM MgCl2, 1×SYBR Greenmaster mix and 2 μl of cDNA. For TBK-1 0.5 μM each of TBK-1 sense (TTGAAGAGGAGACAACAACAAGA) and TBK-1 antisense (CAT TCC ACC CAC CAC ATC T) primers were used.
Cycling conditions for VEGF were as follows: denaturation (95° C. for 10 min), amplification and quantitation (95° C. for 10 s, 58° C. for 10 s and 72° C. for 13 s, with a single fluorescence measurement at the end of the 72° C. for 13 s segment) repeated 45 times. A melting curve program (55-95° C. with a heating rate of 0.1° C./s and continuous fluorescence measurement) and a cooling step to 40° C. followed. Cycling conditions for TBK-1 were identical.
as §1
HEK 293 cells were transfected with double stranded RNAi oligos specific for TBK-1 using siPORT Amine according to the manufacture's protocol (Ambion Europe LTD, Cambridgeshire, United Kingdom). […] Under these conditions, increased expression of VEGF is observed and can be detected via VEGF ELISA (as shown in example 3). […]

With FGF-2, the “stimulation of NHDF proliferation” value in data set [1] is “clearly responsive”.

As for “TBK-1 RNAi: double stranded RNAi oligo specific for TBK-1: sense GGA GAC AAC AAC AAG ACA Utt, antisense AUG UCU UGU UGU UGU CUC Ctc (sense GGAGACAACAACAAGACAU; antisense AUGUCUUGUUGUUGUCUCCC; listed as RNA, chemistry not given here)”, in the data set on TBK-1 mRNA, the “inhibition of expression of TBK-1 mRNA” value was over 85%. Moreover, the “induction of VEGF mRNA under hypoxia” value with VEGF mRNA is “significantly reduces”.
